Reference: patent publication US7538101B2, “1,1-dioxo-thiomorpholinyl indolyl methanone derivatives” (Hoffmann-La Roche Inc., priority 2005, dated 2009)

Target: T1, histamine 3 receptor (H3R) (Homo sapiens, UniProt Q9Y5N1)
T1 construct: expressed in transfected cells; host or cells: CHO cells (HR3-CHO cell line), membrane preparation
Experiment: Binding assay with 3H-(R)α-methylhistamine (competition binding, membranes of the human HR3-CHO cell line)
Conditions: membrane of human HR3-CHO cell line; 3H(R)α-Methylhistamine 1 nM; Ki calculated from IC50 by Cheng-Prusoff equation
Method: Binding Assay with ^3H—(R)α-methylhistamine
Saturation binding experiments were performed using HR3-CHO membranes prepared as described in Takahashi, K, Tokita, S., Kotani, H. (2003) J. Pharmacol. Exp. Therapeutics 307, 213-218.
An appropriate amount of membrane (60 to 80 μg protein/well) was incubated with increasing concentrations of ^3H(R)α-Methylhistamine di-hydrochloride (0.10 to 10 nM). Non specific binding was determined using a 200 fold excess of cold (R)α-Methylhistamine dihydrobromide (500 nM final concentration). The incubation was carried out at room temperature (in deep-well plates shaking for three hours). The final volume in each well was 250 μl. The incubation was followed by rapid filtration on GF/B filters (pre-soaked with 100 μl of 0.5% PEI in Tris 50 mM shaking at 200 rpm for two hours). […] After harvesting, the plates were dried at 55° C. for 60 min, then we added scintillation fluid (Microscint 40, 40 microl in each well) and the amount of radioactivity on the filter was determined in Packard top-counter after shaking the plates for two hours at 200 rpm at room temperature. […]
All compounds were tested at a single concentration in duplicates. […] Ki's were calculated from IC50 based on Cheng-Prusoff equation (Cheng, Y, Prusoff, W H (1973) Biochem Pharmacol 22, 3099-3108).

T1 sequence (Q9Y5N1 whole entry): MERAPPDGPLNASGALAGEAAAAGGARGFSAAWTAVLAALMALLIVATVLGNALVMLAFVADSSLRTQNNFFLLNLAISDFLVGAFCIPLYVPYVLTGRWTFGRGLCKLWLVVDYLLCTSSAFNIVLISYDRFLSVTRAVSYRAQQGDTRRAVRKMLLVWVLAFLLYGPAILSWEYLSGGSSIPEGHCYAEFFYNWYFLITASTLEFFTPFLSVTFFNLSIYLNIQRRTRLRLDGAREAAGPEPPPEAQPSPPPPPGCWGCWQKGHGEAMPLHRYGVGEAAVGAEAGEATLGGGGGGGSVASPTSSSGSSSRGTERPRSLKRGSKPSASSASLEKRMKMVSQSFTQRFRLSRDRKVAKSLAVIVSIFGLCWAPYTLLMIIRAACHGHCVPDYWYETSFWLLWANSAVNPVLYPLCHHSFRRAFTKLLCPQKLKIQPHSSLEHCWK

Ki [nM] | SMILES
3 | CC(C)N1CCC(Oc2ccc3c(c2)cc(C(=O)N2CCS(=O)(=O)CC2)n3CC(F)(F)F)CC1 [Example 1, (1,1-Dioxo-thiomorpholin-4-yl)-[5-(1-isopropyl-piperidin-4-yloxy)-1-(2,2,2-trifluoro-ethyl)-1H-indol-2-yl]-methanone]
49 | CC(C)N1CC[C@H](Oc2ccc3[nH]c(C(=O)N4CCS(=O)(=O)CC4)cc3c2)C1 [Example 4, (1,1-Dioxo-thiomorpholin-4-yl)-[5-(1-isopropyl-pyrrolidin-3S-yloxy)-1H-indol-2-yl]-methanone]
